Measured values as given in patent US20050085644A1, “Novel 3-aryl-2,5-dihydroxy-1,4-benzoquinone derivatives, their preparation method and pharmaceutical compositions containing same” (priority 2002, published 2005).

Assays:
[1] = test system: ob/ob C57BL/6 mice; assay: Chronic in vivo study in ob/ob mice; details: female ob/ob C57BL/6 mice, 9 days, 10 or 20 mg/kg po
Experimental: 11-week-old female ob/ob C57BL/6 mice randomly selected in terms of basal glycaemia from animals that have been fed are treated for 9 days with the test compound at 10 or 20 mg/kg po and compared with a control group receiving 1% HEC. Biological balance (glycaemia, insulinaemia, triglyceridaemia) is reached on the 10th day with the animals that have been fed, the final treatment having taken place the day before. The results are expressed as percentage variations in relation to D0 (glycaemia, body weight) compared with the control group.

[2] = test system: protein kinase B; assay: Activation (phosphorylation) of protein kinase B in CHO-HIR cells, immunoblotting; type: cell-based, hamster; details: 10^−5M, two hours at 37° C.
Experimental: (§1) The pharmacological effect of the compounds of the invention on cellular signaling is evaluated in vitro using hamster ovary cells transfected with human insulin receptors (CHO-HIR). The techniques employed are from TAVARE and DENTON (1988, BIOCHEM. J., 250, 509-519) and TAVARE et al. (1988, Biochem. J., 253, 783-788) modified by ISSAD et al. (1991, Biochem. J., 275, 15-21) and COMBETTES-SOUVERAIN et al. (1997, Diabetologia, 40, 533-540).
(§2) The products are studied at 10^−5M under incubation for two hours at 37° C. with CHO-HIR in culture. A negative control (solvent) and a positive control (insulin 50 nM, 5 min incubation) are used in parallel in the same test. […]
(§3) The phosphorylation of the insulin receptors (IR) and the phosphorylation of protein kinase B are evaluated by immunoblotting as follows.
Similarly, the state of phosphorylation of protein kinase B following electrophoresis of the samples on 10% polyacrylamide gel is determined by chemiluminescence after immunoblotting with anti-phospho protein kinase B antibodies (phospho Akt(Ser473) antibody, ref 9271, Cell Signaling) and then related to the total protein kinase B quantity (AKT antibody, ref 9272, Cell signaling).
The phosphorylation induced by the compounds of the invention is expressed as a percentage in relation to 50 nM insulin, fixed at 100% activation.

[3] = target: T1, human insulin receptors (Homo sapiens, UniProt P06213); assay: Activation (phosphorylation) of insulin receptors in CHO-HIR cells, immunoblotting; type: cell-based; details: 2 h, 10^−5M, two hours at 37° C., read-out: activation percentage for insulin receptors (phosphorylation in relation to 50 nM insulin fixed at 100%)
T1 construct: expressed in transfected cells; host or cells: CHO-HIR (hamster ovary cells)
Experimental: as §1, §2, §3
The IR are extracted over wheatgerm lectin; the samples are then subjected to electrophoresis on 7.5% polyacrylamide gel and subjected to an electric transfer onto PDVF membrane in a semi-dry system. […] After dehydridisation and then rehydridisation with an anit-insulin receptor β subunit antibody (βsubunit, ref 06492, Upstate Biotechnology), the total IR quantity deposited on blot is evaluated by chemiluminescence and the phosphorylation rate of the receptors is related to the total receptor quantity deposited. […]

T1 sequence (P06213 28-758 limits assumed): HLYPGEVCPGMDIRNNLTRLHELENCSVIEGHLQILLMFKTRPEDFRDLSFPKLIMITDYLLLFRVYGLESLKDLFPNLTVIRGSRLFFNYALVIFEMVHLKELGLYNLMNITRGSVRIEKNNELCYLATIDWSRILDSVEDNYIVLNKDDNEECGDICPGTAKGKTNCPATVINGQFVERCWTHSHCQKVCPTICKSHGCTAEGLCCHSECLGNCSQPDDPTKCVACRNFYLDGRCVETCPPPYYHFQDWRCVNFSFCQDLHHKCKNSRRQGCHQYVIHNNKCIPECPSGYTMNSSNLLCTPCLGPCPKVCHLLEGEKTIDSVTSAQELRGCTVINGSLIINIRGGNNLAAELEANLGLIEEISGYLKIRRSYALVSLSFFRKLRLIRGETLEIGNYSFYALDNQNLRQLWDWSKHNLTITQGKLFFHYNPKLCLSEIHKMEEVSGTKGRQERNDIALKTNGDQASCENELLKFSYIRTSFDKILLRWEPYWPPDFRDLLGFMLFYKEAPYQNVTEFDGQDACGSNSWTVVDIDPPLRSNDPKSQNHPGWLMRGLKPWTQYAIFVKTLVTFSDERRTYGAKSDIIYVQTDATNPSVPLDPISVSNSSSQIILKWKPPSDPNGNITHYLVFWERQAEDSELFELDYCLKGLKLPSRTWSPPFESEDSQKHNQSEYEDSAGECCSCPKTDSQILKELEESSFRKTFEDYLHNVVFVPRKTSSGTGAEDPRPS

SMILES | melting point [°C] | activation at 10 µM [3] [%] | activation percentage for protein kinase B (phosphorylation in relation to 50 nM insulin fixed at 100%) [2] [%] | other results
C/C(=C\c1ccccc1)C1=C(O)C(=O)C(c2ccccc2)=C(O)C1=O [Example 10, 2,5-Dihydroxy-3-[(E)-1-methyl-2-phenylethenyl]-6-phenyl-1,4-benzoquinone] | – | – | 91 | –
O=C1C(O)=C(c2ccc3ccccc3c2)C(=O)C(O)=C1c1ccc(Cl)cc1 [Example 16, 2-(4-Chlorophenyl)-3,6-dihydroxy-5-(2-naphthyl)-1,4-benzoquinone] | – | – | – | insulinaemia, variation compared with the controls ([1]; fed, 10th day): −84.2%; glycaemia, percentage variation in relation to D0 ([1]; fed, 10th day, controls +4.5%): −60.7%; body weight, percentage variation in relation to D0 ([1]; control group +4.9%): −26.9%
O=C1C(O)=C(c2cccc(Cl)c2)C(=O)C(O)=C1/C=C/c1ccccc1 [Example 30, 2-(3-Chlorophenyl)-3,6-dihydroxy-5-[(E)-2-phenylethenyl]-1,4-benzoquinone] | – | 134 | – | –

Now from value to compound, other results behind:

melting point [°C] | activation at 10 µM [3] [%] | SMILES | activation percentage for protein kinase B (phosphorylation in relation to 50 nM insulin fixed at 100%) [2] [%] | other results
259 to 260 | – | O=C1C(O)=C(c2ccccc2)C(=O)C(O)=C1/C=C/c1ccccc1 [Example 1, 2,5-Dihydroxy-3-phenyl-6-[(E)-2-phenylethenyl]-1,4-benzoquinone] | – | triglycerides, reduction compared with the control ([1]; fed, 10th day): −37.8%
– | 87.7 | O=C1C(O)=C(c2ccccc2)C(=O)C(O)=C1/C=C/c1ccc(F)cc1 [Example 27, 2-[(E)-2-(4-Fluorophenyl)ethenyl]-3,6-dihydroxy-5-phenyl-1,4-benzoquinone] | 48.9 | –
240 to 241 | – | O=C1C(O)=C(c2ccccc2)C(=O)C(O)=C1/C=C/c1ccc(Br)cc1 [Example 3, 2,5-Dihydroxy-3-phenyl-6-[(E)-2-(4-bromophenyl)-ethenyl]-1,4-benzoquinone] | – | –
